Legend:
[1] = molecular target: T1, OAT2r (Rattus norvegicus, UniProt Q5RLM2); experiment: efflux of glutamate from OAT2r-expressing 293 cells (LC-MS/MS); assay type: cell-based
T1 construct: expressed in transfected cells
T1 sequence (Q5RLM2 1-535): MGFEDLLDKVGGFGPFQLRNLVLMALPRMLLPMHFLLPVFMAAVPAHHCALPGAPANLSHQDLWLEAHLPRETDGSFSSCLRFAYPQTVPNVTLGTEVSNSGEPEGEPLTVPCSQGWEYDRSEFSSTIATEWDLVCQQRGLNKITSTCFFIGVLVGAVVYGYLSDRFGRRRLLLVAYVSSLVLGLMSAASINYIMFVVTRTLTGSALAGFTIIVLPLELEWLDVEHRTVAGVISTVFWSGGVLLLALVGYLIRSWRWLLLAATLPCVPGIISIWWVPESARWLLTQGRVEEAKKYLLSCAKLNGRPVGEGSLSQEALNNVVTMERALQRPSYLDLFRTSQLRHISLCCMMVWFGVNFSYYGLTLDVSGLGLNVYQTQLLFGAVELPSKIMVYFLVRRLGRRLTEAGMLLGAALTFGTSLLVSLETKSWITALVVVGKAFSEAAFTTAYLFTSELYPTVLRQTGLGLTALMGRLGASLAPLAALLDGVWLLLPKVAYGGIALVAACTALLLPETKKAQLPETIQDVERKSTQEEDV
Protocol: To test this hypothesis, 293 cells with or without expression of OAT2r were incubated 10 min in uptake buffer; then, the glutamate content of a buffer sample was determined by LC-MS/MS.
(§1) For measurement of solute uptake, cells were grown in surface culture on 60 mm polystyrol dishes (Nunclon 150288, Nunc, Roskilde, Denmark) precoated with 0.1 g/l poly-L-ornithine in 0.15 M boric acid-NaOH, pH 8.4. Cells were used for uptake experiments at a confluence of at least 70%. Uptake was measured at 37° C. Uptake buffer contains 125 mmol/l NaCl, 25 mmol/l HEPES-NaOH pH 7.4, 5.6 mmol/l (+)glucose, 4.8 mmol/l KCl, 1.2 mmol/l KH2PO4, 1.2 mmol/l CaCl2, and 1.2 mmol/l MgSO4. In glutamate efflux experiments, uptake buffer without KH2PO4 was used to avoid MS interference. After preincubation for at least 20 minutes in 4 ml of uptake buffer, the buffer was replaced with 2 ml of substrate in uptake buffer. The total substrate concentration if not indicated otherwise was 0.1 μmol/l for radiotracer assays and 10 μmol/l for unlabeled compounds. Incubation was stopped after 1 min by rinsing the cells four times each with 4 ml ice-cold uptake buffer. Radioactivity was determined, after cell lysis with 0.1% v/v Triton X-100 in 5 mmol/l TRIS-HCl pH 7.4, by liquid scintillation counting. For LCelectrospray ionization-MS/MS analysis, cells were lysed with methanol and stored at −20° C.

[2] = test system: 293 cells; experiment: uptake into uninduced control 293 cells (expression off); assay type: cell-based, human; conditions: for clearance kin: 10 μmol/l unlabeled substrate
Protocol: Time course of trigonelline uptake. Cells grown in dishes were incubated at 37° C. with 10 μmol/l unlabeled trigonelline in uptake buffer for the indicated periods, washed, and lysed. The function for non-linear regression was y=y0+kin/kout*cout*(1−exp(−kout*x)); parameter y0 allows for trigonelline accumulation from the culture medium.
293 cells (ATCC CRL-1573; also known as HEK-293 cells), a transformed cell line derived from human embryonic kidney, were grown at 37° C. in a humidified atmosphere (5% CO2) in plastic culture flasks (Falcon 3112, Becton Dickinson, Heidelberg, Germany). The growth medium was Dulbecco's Modified Eagle Medium (Life Technologies 31885-023, Invitrogen, Karlsruhe, Germany) supplemented with 10% fetal calf serum (PAA Laboratories, Cölbe, Germany). Medium was changed every 2-3 days and the culture was split every 5 days. Stably transfected cell lines were generated as reported previously (Bach M et al. FEBS Journal 2007; 274:783-790.). As there is no integration of vector pEBTetD into the genome, clonal isolation of transfected cells is not necessary; we thus use cell pools rather than single cell clones. Cell culture medium always contained 3 μg/ml puromycin (PAA Laboratories) to ascertain plasmid maintenance. To turn on protein expression, cells were cultivated for at least 20 h in regular growth medium supplemented with 1 μg/ml doxycycline (195044, MP Biomedicals, Eschwege, Germany).
as §1
After centrifugation (1 min, 16000×g, 20° C.) of thawed lysates, 100 μl of the supernatant was mixed with either 10 μl unlabeled MPP+ iodide (0.5 ng/μl) or biphenyl-4-carboxylic acid (Sigma-Aldrich) as internal standard. Of this mixture, […] were analyzed by LCMS/MS on a triple quadrupole mass spectrometer (4000 Q TRAP, Applied Biosystems, Darmstadt, Germany). […] Atmospheric pressure ionization with positive or negative electrospray was used. For quantification (scan time 150 ms), the optimal collision energy for argon-induced fragmentation in the second quadrupole was determined for each analyte. […] Linear calibration curves were constructed from at least six standards which were prepared using control cell lysates as solvent. Sample analyte content was calculated from the analyte response ratio and the slope of the calibration curve, obtained by linear regression. With LC-MS quantitation, solute content of cell lysates was determined for 4 conditions (paired dishes, incubation time 1 min): a) transporter expression on, uptake buffer; b) expression off, uptake buffer; c) expression on, substrate in uptake buffer; d) expression off, substrate in uptake buffer. Acute uptake mediated by heterologously expressed carrier was then calculated as (c−a)−(d−b). This approach takes into account endogenous solute content and non-specific uptake.

[3] = time course, uninduced control cells

Compound | release of glutamate upon expression of OAT2 (in words) ([1]; 10 min in uptake buffer, without extracellular exchange substrate) | effect on efflux of glutamate (in words) ([1]; 1 mmol/l compound in uptake buffer, 10 min) | intracellular content ([2]; 10 μmol/l unlabeled orotic acid, after 60 min, cells lacking the transporter) | cell content directly after washing ([2]; 1 h, 37° C. preloading with 100 μmol/l 3H-orotic acid, uninduced control cells, n=4) | non-specific uptake into control cells, slope ([2]; saturation experiment, 1 min, expression off) | clearance kin [2, 3] | kout ([2]; time course, unlabeled orotic acid, expression off)
N[C@@H](CCC(=O)O)C(=O)O [glutamate] | markedly increased release | – | – | – | – | – | –
O=C(O)c1cc(=O)[nH]c(=O)[nH]1 [orotic acid] | – | strongly trans-stimulated efflux of glutamate | 0.05 nmol/mg protein | 3.5±0.1 nmol/mg protein | 0.56 μl min-1 mg protein-1 | 0.58±0.12 μl min-1 mg protein-1 | 0.12 ± 0.03 min⁻¹
C[n+]1cccc(C(=O)[O-])c1 [trigonelline] | – | – | – | – | – | 0.11±0.01 μl min-1 mg protein-1 | –

Reference: US20140090094A1, “MODULATORS OF SLC22A7” (BAYER INTELLECTUAL PROPERTY GmbH, priority 2011, published 2014)
